In patent US10202332B2, “Method for preparing 2-amino-N-(2,2,2-trifluoroethyl) acetamide” (E. I. du Pont de Nemours and Company, priority 2010, dated 2019):

Experiment: Stability comparison for free base and salts: weight gain or loss on exposure to air in the laboratory
Type: physicochemical
Conditions: for hygroscopicity (in words): handling, exposure to air
Experimental: To further characterize the stability of the free amine and salts of 2-amino-N-(2,2,2-trifluoroethyl)acetamide the following experiments were performed. Samples of the free amine and salts were exposed to air in the laboratory for a period of time. Weight […] or loss compared to the original sample was determined

SMILES | sensitivity to air (in words) | % Weight gain (loss) (3 days in ambient atmosphere, parentheses = loss) | weight gain upon exposure to the ambient atmosphere (in words) | hygroscopicity (in words)
NCC(=O)NCC(F)(F)F [Free base, 2-amino-N-(2,2,2-trifluoroethyl)acetamide] | sensitive to air | 4.65% | showed weight gain | hygroscopic
Cl.NCC(=O)NCC(F)(F)F [Hydrochloride, 2-amino-N-(2,2,2-trifluoroethyl)acetamide hydrochloride] | – | – | did not | not hygroscopic
